# In paper PMC12350162, “Electron flow in hydrogenotrophic methanogens under nickel limitation” (Nature, 2025):
# How the values were obtained:
# [1] = biological target: T1, Elp–Hdr complex, HdrA site (bifurcating FAD) (Methanothermobacter marburgensis, UniProt Q50756); assay: cryo-EM structure; assay type: binding; settings: electron-bifurcating FAD site of HdrA; co-purified native cofactor
# T1 construct: with H(2):CoB-CoM heterodisulfide,ferredoxin reductase subunit B; H(2):CoB-CoM heterodisulfide,ferredoxin reductase subunit C; F420-dependent electron-donating protein A (truncated formate dehydrogenase alpha subunit FdhA homologue); F420-dependent electron-donating protein B (formate dehydrogenase beta subunit FdhB homologue); F420-dependent electron-donating protein C (MvhD homologue)
# [2] = biological target: T2, Elp–Hdr complex (ElpABC–HdrABC)2, ElpB site (Methanothermobacter marburgensis, UniProt D9PY03); assay: cryo-EM structure; settings: FAD-binding site of ElpB; co-purified native cofactor; states 1 and 2
# T2 construct: gene fdhB; with F420-dependent electron-donating protein A (truncated formate dehydrogenase alpha subunit FdhA homologue); F420-dependent electron-donating protein C (MvhD homologue); H(2):CoB-CoM heterodisulfide,ferredoxin reductase subunit A; H(2):CoB-CoM heterodisulfide,ferredoxin reductase subunit B; H(2):CoB-CoM heterodisulfide,ferredoxin reductase subunit C
# T2 sequence (D9PY03 1-380): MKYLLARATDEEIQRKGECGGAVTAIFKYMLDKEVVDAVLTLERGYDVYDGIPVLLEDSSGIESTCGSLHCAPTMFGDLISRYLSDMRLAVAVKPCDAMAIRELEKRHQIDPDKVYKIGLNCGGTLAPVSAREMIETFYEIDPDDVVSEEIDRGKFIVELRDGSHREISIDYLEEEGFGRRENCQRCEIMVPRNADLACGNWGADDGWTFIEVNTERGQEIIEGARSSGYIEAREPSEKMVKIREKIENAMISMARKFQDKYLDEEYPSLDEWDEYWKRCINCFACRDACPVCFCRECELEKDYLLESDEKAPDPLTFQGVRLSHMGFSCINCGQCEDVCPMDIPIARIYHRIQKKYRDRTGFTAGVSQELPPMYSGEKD
# T2 sequence (D9PY04 1-342 partner): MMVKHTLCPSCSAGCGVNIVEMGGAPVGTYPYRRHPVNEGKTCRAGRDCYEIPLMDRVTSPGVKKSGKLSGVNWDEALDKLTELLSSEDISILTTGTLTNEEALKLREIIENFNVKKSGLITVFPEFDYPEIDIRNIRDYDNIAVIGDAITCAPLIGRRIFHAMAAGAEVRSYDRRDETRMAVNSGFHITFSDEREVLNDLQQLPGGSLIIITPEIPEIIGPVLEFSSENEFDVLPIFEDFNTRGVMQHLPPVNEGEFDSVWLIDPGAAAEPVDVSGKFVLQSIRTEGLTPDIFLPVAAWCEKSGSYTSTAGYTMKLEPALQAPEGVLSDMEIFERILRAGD
# T2 sequence (D9PY02 1-136 partner): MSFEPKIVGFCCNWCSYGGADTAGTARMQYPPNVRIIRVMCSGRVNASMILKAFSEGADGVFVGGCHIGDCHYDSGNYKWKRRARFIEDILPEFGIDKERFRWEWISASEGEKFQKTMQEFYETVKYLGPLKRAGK
# T2 sequence (Q50756 2-659 partner): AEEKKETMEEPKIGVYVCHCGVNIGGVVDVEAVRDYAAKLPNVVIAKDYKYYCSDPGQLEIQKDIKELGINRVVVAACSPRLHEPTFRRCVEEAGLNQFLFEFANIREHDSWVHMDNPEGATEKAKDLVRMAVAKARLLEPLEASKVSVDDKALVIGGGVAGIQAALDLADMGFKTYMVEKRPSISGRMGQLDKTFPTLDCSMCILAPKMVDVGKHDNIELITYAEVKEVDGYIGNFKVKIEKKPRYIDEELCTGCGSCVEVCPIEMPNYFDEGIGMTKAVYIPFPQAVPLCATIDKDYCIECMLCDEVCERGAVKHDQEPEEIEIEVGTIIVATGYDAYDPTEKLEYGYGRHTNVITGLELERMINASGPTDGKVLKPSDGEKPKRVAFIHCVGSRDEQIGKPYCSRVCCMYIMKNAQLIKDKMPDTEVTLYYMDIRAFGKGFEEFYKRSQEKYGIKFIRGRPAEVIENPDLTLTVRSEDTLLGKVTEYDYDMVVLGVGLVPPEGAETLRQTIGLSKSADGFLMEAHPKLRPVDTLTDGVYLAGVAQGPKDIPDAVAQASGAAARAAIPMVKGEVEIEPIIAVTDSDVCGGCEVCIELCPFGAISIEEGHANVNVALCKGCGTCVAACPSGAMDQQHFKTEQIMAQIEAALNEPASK
# T2 sequence (Q50755 whole entry partner, the tested form may be a part): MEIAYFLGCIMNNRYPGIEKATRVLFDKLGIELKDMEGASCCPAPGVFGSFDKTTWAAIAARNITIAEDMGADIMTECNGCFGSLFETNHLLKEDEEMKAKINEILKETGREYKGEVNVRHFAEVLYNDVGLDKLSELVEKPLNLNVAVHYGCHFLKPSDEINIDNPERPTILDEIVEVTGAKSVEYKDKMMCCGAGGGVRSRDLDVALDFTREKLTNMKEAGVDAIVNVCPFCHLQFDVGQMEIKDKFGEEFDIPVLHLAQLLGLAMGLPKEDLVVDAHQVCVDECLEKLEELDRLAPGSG
# T2 sequence (Q50754 2-185 partner): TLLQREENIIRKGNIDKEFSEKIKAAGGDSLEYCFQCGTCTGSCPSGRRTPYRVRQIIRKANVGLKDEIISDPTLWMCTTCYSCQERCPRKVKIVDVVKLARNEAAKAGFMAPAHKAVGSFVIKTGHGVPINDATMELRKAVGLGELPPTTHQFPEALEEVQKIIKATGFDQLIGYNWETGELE
# T1 sequence (Q50756 2-659): as the sequence (Q50756 2-659 partner) above
# T1 sequence (Q50755 whole entry partner, the tested form may be a part): as the sequence (Q50755 whole entry partner, the tested form may be a part) above
# T1 sequence (Q50754 2-185 partner): as the sequence (Q50754 2-185 partner) above
# T1 sequence (D9PY04 1-342 partner): as the sequence (D9PY04 1-342 partner) above
# T1 sequence (D9PY03 1-380 partner): as the sequence (D9PY03 1-380) above
# T1 sequence (D9PY02 1-136 partner): as the sequence (D9PY02 1-136 partner) above
smiles,measurement,setting,value
Cc1cc2nc3c(=O)[nH]c(=O)nc-3n(C[C@H](O)[C@H](O)[C@H](O)COP(=O)(O)OP(=O)(O)OC[C@H]3O[C@@H](n4cnc5c(N)ncnc54)[C@H](O)[C@@H]3O)c2cc1C [FAD],cryo-EM structure,[1],Cofactors including the electron-bifurcating FAD of HdrA
same,cryo-EM structure,[2],the positions of FAD and the four [4Fe–4S] clusters are conserved
